Source: patent publication US20040034050A1, “Homo-camptothecin derivatives” (priority 2002, published 2004)

Tested on: VM46 cells
Test: Cell colony formation assay
Assay type: cell-based
Conditions: drug concentration producing 50% inhibition of colony formation, incubated with drugs for 72 hours at 37° C., colonies counted after 8 days
Experimental: This example provides directions for growing cells and testing compounds of the invention for their effect on the growth of the cells. All cells are purchased from DCTDC Tumor Repository, NCI, NIH.
Cell Colony Formation Assay
Five hundred cells (VM46) were plated in 60 mm Petri dishes containing 2.7 ml of medium (modified McCoy's 5a medium containing 10% bovine calf serum and 100 units/ml penicillin and […] streptomycin). The cells were incubated in a CO2 incubator at 37° C. for 5 hours for attachment to the bottom of Petri dishes. Drugs were made fresh in medium at ten times the final concentration, and then 0.3 ml of this stock solution was added to the 2.7 ml of medium in the dish. The cells were then incubated with drugs for 72 hours at 37° C. At the end of the incubation the drug-containing media were decanted, the dishes were rinsed with 4 ml of Hank's Balance Salt Solution (HBSS), 5 ml of fresh medium is added, and the dishes are returned to the incubator for colony formation. The cell colonies were counted using colony counter after incubation for 8 days for VM46 cells.
Values of ID50 (the drug concentration producing 50% inhibition of colony formation) may be determined for each tested compound.

For `CCC1(OC(=O)COc2ccc(F)cc2)CC(=O)OCc2c1cc1n(c2=O)Cc2cc3ccccc3nc2-1` (centres unmarked) [Example 1160, Homo-camptothecin-20-O-ester of 4-Fluorophenoxyacetic Acid], the “Values of ID 50” value was 1.5 nM.

For `CC[C@@]1(O)CC(=O)OCc2c1cc1n(c2=O)Cc2cc3ccccc3nc2-1` (racemic) [homo-campothecin, homo-camptothecin], the “Values of ID 50” value was 4 nM.

With `CCC1(OC(=O)COc2ccc(OC(F)(F)F)cc2)CC(=O)OCc2c1cc1n(c2=O)Cc2cc3ccccc3nc2-1` (centres unmarked) [Example 1164, Homo-camptothecin-20-O-ester of 4-Trifluoromethoxyphenoxyacetic Acid] the “Values of ID 50” value was 3.5 nM.

For `CCC1(OC(=O)COc2cccc(Cl)c2Cl)CC(=O)OCc2c1cc1n(c2=O)Cc2cc3ccccc3nc2-1` (centres unmarked) [Example 1158, Homocamptothecin-20-O Ester of 2,3-Dichlorophenoxy Acetic Acid], the “Values of ID 50” value was 1.5 nM.

For `CCC1(OC(=O)COc2ccccc2Cl)CC(=O)OCc2c1cc1n(c2=O)Cc2cc3ccccc3nc2-1` (centres unmarked) [Example 021229, Homocamptothecin-20-O Ester of 2-Chlorophenoxy Acetic Acid], the “Values of ID 50” value was 2 nM.
